This note sets out measurements from patent EP0734259B1, “Use of piperidine compounds in the treatment of schizophrenia” (NOVO NORDISK A/S, priority 1993, dated 1995).

Each structure is given as a SMILES string. Where a name gives a salt, the structure may show the parent alone.

In one experiment the target is muscarinic receptors. As to the kind of experiment: ^3H-oxotremorine-M binding assay (inhibition of binding to cerebral cortical membranes). Particulars: 3 nM ^3H-oxotremorine-M, rat cerebral cortical membranes, 15 minutes at 25°C, read-out: Inhibition of ^3H-Oxo. The protocol: The affinity of the compounds for the muscarinic receptors was determined using the non-selective agonist ligand, ^3H-oxotremorine-M. Birdsdall N.J.M., Hulme E.C., and Burgen A.S.V., "The Character of Muscarinic Receptors in Different Regions of the Rat Brain", 207 Proc. Roy. Soc. 1 (London, Series B, 1980). Each compound was tested to determine the affinity of the compound for the muscarinic receptors using the following procedure.
For each in vitro binding, male Sprague-Dawley (Harlan Sprague-Dawley, Indianapolis, IN) rats weighing from about 100 to about 150 grams each were sacrificed by decapitation. The brains were quickly removed and the cerebral cortex were dissected from the brain. The cerebral cortex tissue was homogenized in 10 volumes of 0.32 M sucrose and […] at about 1000 x g. The supernatant was centrifuged at about 12,000 x g for about 10 minutes and the resulting pellet was resuspended in 20 mM tris-CI, pH 7.4. The resuspended pellet was centrifuged again for about 10 minutes at about 50,000 x g. The resulting homogenate was preincubated for about 10 minutes at about 25°C and centrifuged again for about 10 minutes at about 50,000 x g. The pellet was resuspended at 1 gram of pellet per 3 ml of buffer and frozen at about -80°C until used.
The aforementioned homogenates mixture was incubated for about 15 minutes at about 25°C and then the homogenates were filtered through glass filters (Whatman, GF/C) with vacuum. The filters were washed 3 times with about 2 ml of cold tris-CI buffer, and placed in scintillation vials containing about 10 ml of scintillation fluid (Ready Protein+, Beckman, Fullerton, CA). Radioactivity trapped on the filters was determined by liquid scintillation spectrometry. Nonspecific binding was determined using 1 µM atropine. […] DeLean, A. et al. Am. J. Physiol., 235, (1978).

The test system of another experiment is rats. As to the kind of experiment: Conditioned avoidance behavior in rats. The format is in vivo, rat. Particulars: 3.0 mg/kg s.c. 30 min before the session, active if % avoidance reduced to at least 50%. The text has this: In a conditioned avoidance test, animals learn to respond during a conditioned stimulus in order to avoid mild shock presentation. A response during the conditioned stimulus is termed an avoidance respone, a response during shock is termed an escape response; a response failure is when the animal fails to respond during either the conditioned stimlus or the shock presentation and is indicative of motor impairment. Animals rapidly learn to avoid 99% of the time. Antipsychotic drugs decrease the percentage of avoidance responses without interfering with the ability of the animal to respond since the animals do emit escape responses. The percentage of response failures is considered a measure of motor impairment.
Rats were required to press a response lever in an experimental chamber in order to avoid or escape foot-shock. Each experimental session consisted of 50 trials. During each trial, the chamber was illuminated and a tone presented for a maximum of 10 sec. A response during the tone immediately terminated the tone and the houselight, ending the trial. In the absence of a response during the tone alone, tone+foot-shock (2.0 mA) was presented for a maximum of 10 sec. A response during shock presentation immediately terminated the shock, the tone and the houselight, ending the trial.
For drug screening, a dose of 3.0 mg/kg was administered s.c. 30 min before the start of the experimental session. A drug was considered active if it reduced the % avoidance responding to at least 50% without producing greater than 50% response failures. For active drugs, a dose-response curve was subsequently determined.

Regarding `COc1nsnc1C1=CCCN(C)C1.O=C(O)C(=O)O` [Compound 1, 1,2,5,6-Tetrahydro-3-(3-methoxy-1,2,5-thiadiazol-4-yl)-1-methylpyridine oxalate], the IC50 at muscarinic receptors was 22 nM. The “Conditioned Avoidance % Avoidance Responses” value with rats is listed as 97%.

As for `CCOc1nsnc1C1=CCCN(C)C1.O=C(O)C(=O)O` [Compound 2, 3-(3-Ethoxy-1,2,5-thiadiazol-4-yl)-1,2,5,6-tetrahydro-1-methylpyridine oxalate], at muscarinic receptors, the IC50 came out at 5.7 nM. In addition, in the experiment on rats, the “Conditioned Avoidance % Avoidance Responses” value is listed as 70%.

As to `CCCOc1nsnc1C1=CCCN(C)C1.O=C(O)C(=O)O` [Compound 3, 1,2,5,6-Tetrahydro-1-methyl-3-(3-propoxy-1,2,5-thiadiazol-4-yl)pyridine oxalate], the IC50 at muscarinic receptors is 1.6 nM. Further, the “Conditioned Avoidance % Avoidance Responses” value in the experiment on rats worked out at 71%.

With `CCCCOc1nsnc1C1=CCCN(C)C1.O=C(O)C(=O)O` [Compound 4, 3-(3-Butoxy-1,2,5-thiadiazol-4-yl)-1,2,5,6-tetrahydro-1-methylpyridine oxalate], the IC50 at muscarinic receptors was found to be 2 nM. In the experiment with rats, the “Conditioned Avoidance % Avoidance Responses” value is 74%.

Turning to `CCCSc1nsnc1C1=CCCN(C)C1.O=C(O)C(=O)O` [Compound 47, 3-(3-Propylthio-1,2,5-thiadiazol-4-yl)-1,2,5,6-tetrahydro-1-methylpyridine oxalate], at muscarinic receptors, the IC50 is 0.9 nM. For the same compound, the “Conditioned Avoidance % Avoidance Responses” value in the experiment with rats is listed as 49%.

Turning to `CCCCSc1nsnc1C1=CCCN(C)C1.O=C(O)C(=O)O` [Compound 48, 3-(3-Butylthio-1,2,5-thiadiazol-4-yl)-1,2,5,6-tetrahydro-1-methylpyridine oxalate], at muscarinic receptors, the IC50 amounted to 1.7 nM. Also, in the experiment with rats, the “Conditioned Avoidance % Avoidance Responses” value was found to be 57%.

For `CSc1nsnc1C1=CCCN(C)C1.O=C(O)C(=O)O` [Compound 49, 3-(3-Methylthio-1,2,5-thiadiazol-4-yl)-1,2,5,6-tetrahydro-1-methylpyridine oxalate], on muscarinic receptors, the IC50 came out at 2.3 nM. In the experiment with rats, the “Conditioned Avoidance % Avoidance Responses” value was 37%.

Take `CCSc1nsnc1C1=CCCN(C)C1.O=C(O)C(=O)O` [Compound 65, 3-(3-Ethylthio-1,2,5-thiadiazol-4-yl)-1,2,5,6-tetrahydro-1-methylpyridine oxalate]: the IC50 at muscarinic receptors came to 1.9 nM. Moreover, the “Conditioned Avoidance % Avoidance Responses” value in the experiment with rats is listed as 69%.

As for `CCCCCSc1nsnc1C1=CCCN(C)C1.O=C(O)C(=O)O` [Compound 66, 3-(3-Pentylthio-1,2,5-thiadiazol-4-yl)-1,2,5,6-tetrahydro-1-methylpyridine oxalate], the IC50 on muscarinic receptors is 4.8 nM. The “Conditioned Avoidance % Avoidance Responses” value in the experiment with rats is 87%.

Regarding `CCOc1nsnc1C1=CCCNC1.Cl` [Compound 215, 3-(3-Ethoxy-1,2,5-thiadiazol-4-yl)-1,2,5,6-tetrahydropyridine hydrochloride], on muscarinic receptors, the IC50 was found to be 10.5 nM. Moreover, the “Conditioned Avoidance % Avoidance Responses” value in the experiment on rats worked out at 61%.

Consider `CCSc1nsnc1C1=CCCNC1.Cl` [Compound 216, 3-(3-Ethylthio-1,2,5-thiadiazol-4-yl)-1,2,5,6-tetrahydropyridine hydrochloride], for which the IC50 at muscarinic receptors came out at 6.5 nM. In addition, in the experiment with rats, the “Conditioned Avoidance % Avoidance Responses” value is given as 12%.

With `CCCSc1nsnc1C1=CCCNC1.O=C(O)C(=O)O` [Compound 217, 3-(3-Propylthio-1,2,5-thiadiazol-4-yl)-1,2,5,6-tetrahydropyridine oxalate], the IC50 on muscarinic receptors amounted to 1.2 nM. In addition, the “Conditioned Avoidance % Avoidance Responses” value in the experiment on rats was found to be 30%.

Regarding `CCCCSc1nsnc1C1=CCCNC1.O=C(O)C(=O)O` [Compound 218, 3-(3-Butylthio-1,2,5-thiadiazol-4-yl)-1,2,5,6-tetrahydropyridine oxalate], the IC50 on muscarinic receptors was determined as 3.5 nM. Besides, the “Conditioned Avoidance % Avoidance Responses” value in the experiment with rats is on record as 39%.

Take `CCCCCSc1nsnc1C1=CCCNC1.O=C(O)C(=O)O` [Compound 219, 3-(3-Pentylthio-1,2,5-thiadiazol-4-yl)-1,2,5,6-tetrahydropyridine oxalate]: on muscarinic receptors, the IC50 was determined as 5.8 nM. Besides, the “Conditioned Avoidance % Avoidance Responses” value with rats is given as 79%.

On to `CCCCCCSc1nsnc1C1=CCCNC1` [Compound 220, 3-(3-Hexylthio-1,2,5-thiadiazol-4-yl-1,2,5,6-tetrahydropyridine oxalate], for which the IC50 on muscarinic receptors was 3 nM. Further, the “Conditioned Avoidance % Avoidance Responses” value in the experiment on rats was 88%.

`Cl.FC(F)(F)CSc1nsnc1C1=CCCNC1` [Compound 222, 3-(3-(2,2,2-Trifluoroethylthio)-1,2,5-thiadiazol-4-yl)-1,2,5,6-tetrahydropyridine hydrochloride]: the IC50 at muscarinic receptors was 0.42 nM. Moreover, in the experiment with rats, the “Conditioned Avoidance % Avoidance Responses” value is on record as 0%.

Regarding `Cl.FC(F)(F)COc1nsnc1C1=CCCNC1` [Compound 223, 3-(3-(2,2,2-Trifluoroethoxy)-1,2,5-thiadiazol-4-yl)-1,2,5,6-tetrahydropyridine hydrochloride], the IC50 on muscarinic receptors is 7.4 nM. Moreover, in the experiment with rats, the “Conditioned Avoidance % Avoidance Responses” value worked out at 31%.

For the compound `CN1CCC=C(c2nsnc2SCCSc2cccs2)C1` [Compound 228, 3-(3-(2-(2-Thienylthio)ethylthio))-1,2,5-thiadiazol-4-yl)-1,2,5,6-tetrahydro-1-methylpyridine oxalate], at muscarinic receptors, the IC50 worked out at 0.6 nM. Further, the “Conditioned Avoidance % Avoidance Responses” value in the experiment with rats is given as 92%.
